Experimental findings from ChEMBL document CHEMBL6153072, “Metabolically Stable Adenylation Inhibitors of Biotin Protein Ligase as Antibacterial Agents” (J Med Chem, 2025) are described below.

Type in all cases: functional
Experiment [1] deals with Mycobacterium tuberculosis. Description: Antimicrobial activity against Mycobacterium tuberculosis H37Rv harboring high over-expression of BPL by broth microdilution assay.
Experiment [2] has as its system Mycobacterium tuberculosis. Nature of the experiment: Antimicrobial activity against Mycobacterium tuberculosis H37Rv harboring ultra-under-expression of BPL by broth microdilution assay.
Experiment [3] concerns Mycobacterium tuberculosis. Description: Antimicrobial activity against Mycobacterium tuberculosis H37Rv harboring medium under-expression of BPL by broth microdilution assay.
Experiment [4] deals with Mycobacterium tuberculosis. Description: Antimicrobial activity against Mycobacterium tuberculosis H37Rv harboring medium over-expression of BPL by broth microdilution assay.

≈ marks a conversion by molar mass, not a printed value.

As for `Nc1ncnc2c1ncn2[C@@H]1O[C@H](CNS(=O)(=O)[N-]C(=O)CCCC[C@@H]2SC[C@@H]3NC(=O)N[C@@H]32)[C@@H](O)[C@H]1O.[Na+]`, the MIC50 in experiment [1] worked out at 16 µM; in experiment [2], 0.047 µM; in experiment [3], 0.14 µM; in experiment [4], 11 µM.

`Nc1ncnc2c1ncn2[C@@H]1O[C@H](CNS(=O)(=O)[N-]C(=O)NCCC[C@@H]2SC[C@@H]3NC(=O)N[C@@H]32)[C@@H](O)[C@H]1O.[Na+]`: the MIC50 in experiment [1] is over 100 µM; in experiment [2] it was 0.28 µM; in experiment [3], 0.89 µM; in experiment [4] it was over 100 µM.

In the case of `Nc1cccc2c1ncn2CCCCNS(=O)(=O)NC(=O)CCCC[C@@H]1SC[C@@H]2NC(=O)N[C@@H]21`, the MIC50 came to 16 µM (≈ 8.15 µg/mL) in experiment [2] and 18 µM (≈ 9.17 µg/mL) in experiment [3].

For the molecule `CC(CCC[C@@H]1SC[C@@H]2NC(=O)N[C@@H]21)C(=O)[N-]S(=O)(=O)NC[C@H]1O[C@@H](n2cnc3c(N)ncnc32)[C@H](O)[C@@H]1O.[Na+]` (some centres undefined), the MIC50 is over 100 µM in experiment [1], 0.79 µM in experiment [2], 3.7 µM in experiment [3] and over 100 µM in experiment [4].
